Several values for one entry are separate records, joined by “and”; a condition that tells them apart may be missing. Identical values can stand only once. Like-named read-outs stand apart in the source and are kept apart here.
Key:
[1] = Cannabinoids and Δ^9-THC metabolites in capillary blood (LC-HRMS); settings: pre-smoking
Description: The complex nature of cannabinoid pharmacokinetics and pharmacodynamics calls for a new approach for effectively determining recent use of cannabis within the impairment window. We sought to develop a multiple-parameter test based on pharmacological changes in Δ^9-THC and its metabolites in blood over time. This approach requires the collection of two samples separated by a known time interval, which is a critical difference compared to current blood testing methods that rely on the collection of a single sample. The two-sample strategy makes possible the detection of Δ^9-THC in its distribution phase where the half-life is very short [Moeller M R. et al., J Forensic Sci 37:969-83 (1992); Wall M E. et al., Clin Pharmacol Ther 34:352-63 (1983)], which occurs only within the first few hours after smoking, and for the evaluation of how Δ^9-THC metabolite levels in blood are changing with time relative to Δ^9-THC. A liquid chromatography high-resolution mass spectrometry (LC-HRMS) bioanalytical method for the quantification of cannabinoids in microsamples (50 μL) of whole blood was developed and validated for this purpose [DeGregorio M W. et al., J AOAC Int 103:725-35 (2020)].
A total of 92 subjects were included in clinical trials designed to evaluate the feasibility of the described method for determining recent cannabis use (blood-based study in 48 subjects) and recent cannabis use and impairment (breath- and blood-based study in 44 subjects). Each subject was given a single cannabis cigarette and instructed to smoke as much of it as possible within a 10-minute period. Cigarettes containing 500 mg of dried cannabis flower were prepared immediately before each smoking session. During the studies, subjects were given a variety of cannabis chemovars to smoke, with Δ^9-THC content ranging from a low of 8.5% to a high of 28.4%. A wide variety of chemovars was included to account for the variability in Δ^9-THC potencies available in numerous cannabis retail establishments in the various U.S. states where recreational and/or medicinal cannabis has been legalized. Capillary blood samples ([…] collected at various time points prior to smoking and up to 200 minutes after smoking, were obtained from a total of 92 subjects using a variety of methods including lancets and two types of automated blood collection devices. Exhaled breath samples were collected from a total of 44 subjects at various time points prior to smoking and up to 240 minutes post-smoking. Breath samples were collected using devices equipped with electrostatic polymer filters and that are designed to collect approximately 20 L of exhaled breath through normal breathing. The time required for breath sample collection was approximately 2-3 minutes. A total of 74 subjects were asked to self-assess their level of impairment before smoking and at each designated sampling time point after smoking based on a scale ranging from 0 (not impaired) to 10 (very impaired) as shown in FIG. 2. As a physical indicator of impairment, 44 subjects were evaluated for horizontal gaze nystagmus.
One of the first endpoints investigated during clinical development of the recent use test method was whether there is any relationship between blood Δ^9-THC levels and impairment. Prior to smoking, Δ^9-THC blood concentrations were evaluated in a group of 30 subjects before and up to 200 minutes after smoking a 500-mg cannabis cigarette and compared to a common legal limit (5 ng/mL) for establishing driver impairment due to cannabis.

[2] = Stability of target analytes in the breath collection device; type: physicochemical
Description: In particular, CBN, CBG, and Δ^9-THCV all have a much greater incidence in breath during peak impairment (the first hour after smoking) compared to pre-smoking. […] Stability of the analytes within the breath collection devices was previously established (see Table 4 below).

[3] = Presence of cannabinoids in exhaled breath before and after smoking (LC-HRMS); type: in vivo, human
Method: (§1) The positive recent use test results outside of the three-hour impairment window based on blood sampling alone led to the incorporation of a second testing matrix, exhaled breath, to strengthen the results of the test method so that cannabis users who are within the impairment window after smoking can be more accurately identified. For this purpose, a total of 44 additional subjects were evaluated in a smoking study in which both exhaled breath and blood samples were collected and then analyzed by LC-HRMS for cannabinoids and Δ^9-THC metabolites. As with the 48-subject blood-based study, subjects were given a 500-mg cannabis cigarette to smoke, and breath and blood samples were collected at various time points before and after smoking.

[4] = Cannabinoid half-lives in exhaled breath, multi-point breath sampling; type: in vivo, human; settings: for Cannabinoid Half-Lives (min) in breath, back-to-back sampling: individual subject; for half-life: human, exhaled breath, inhaled, 500 mg
Method: as §1
These included the presence of CBN, CBC, CBG, Δ^9-THCV, and CBGA, and short half-lives (<60 minutes) for Δ^9-THC, CBN, CBC, CBG, and Δ^9-THCV (see Table 5 below). […] Pre-smoking, half-lives were calculable for Δ^9-THC in only three subjects.
Evidence of recent cannabis use by inhalation through smoking or vaping dissipates rapidly in exhaled breath, and thus allowing 20 minutes between breath samplings, which was employed in the blood-based study and for most of the subjects in the blood and breath-based study, may result in the loss of valuable data. In the last nine subjects involved in the exhaled breath study, a back-to-back sample collection strategy was employed whereby two exhaled breath samples were collected in quick succession at 20 and 40 minutes post-smoking. Approximately two minutes elapsed between the collection of each sample. The very short half-lives observed for Δ^9-THC, CBN, and other cannabinoids (approximately five minutes or less) in exhaled breath would allow for rapid sampling (see Table 6 below).

[5] = Day 3, breath collection device
[6] = Day 7, breath collection device
[7] = Day 10, breath collection device
[8] = Day 14, breath collection device
[9] = Day 30, breath collection device
[10] = 0-10 Minutes Post-Smoking, read-out: Average Half-Life (minutes ± SD) in breath
[11] = 0-20 Minutes Post-Smoking, read-out: Average Half-Life (minutes ± SD) in breath
[12] = 20 Minutes Post-Smoking, read-out: Cannabinoid Half-Lives (min) in breath, back-to-back sampling, Average
[13] = 40 Minutes Post-Smoking, read-out: Cannabinoid Half-Lives (min) in breath, back-to-back sampling, Average

Row | SMILES | detection in subjects' blood samples at baseline prior to smoking [1] | Analyte Stability (%) at Room Temperature (20-25° C.) [2, 5] | Analyte Stability (%) at Room Temperature (20-25° C.) [2, 6] | Analyte Stability (%) at Room Temperature (20-25° C.) [2, 7] | Analyte Stability (%) at Room Temperature (20-25° C.) [2, 9] | Presence in exhaled breath, Percent (%) Positivity ([3]; >60 minutes after smoking) | Presence in exhaled breath, positive/evaluable subjects ([3]; >60 minutes after smoking) | Presence in exhaled breath, Percent (%) Positivity ([3]; Baseline (Pre-smoking)) | Presence in exhaled breath, positive/evaluable subjects ([3]; Baseline (Pre-smoking)) | Presence in exhaled breath, Percent (%) Positivity ([3]; ≤60 minutes after smoking) | Presence in exhaled breath, positive/evaluable subjects ([3]; ≤60 minutes after smoking) | other results
1 | CCCCCc1cc(O)c2c(c1)OC(C)(C)C1CC(O)C(CO)=CC21 (stereo not drawn) [8β,11-dihydroxy-Δ^9-THC] | detected |  |  |  |  |  |  |  |  |  |  | 
2 | CCCCCc1cc(O)c2c(c1)OC(C)(C)[C@@H]1C[C@@H](O)C(C)=C[C@@H]21 [8β-hydroxy-Δ^9-THC] | detected |  |  |  |  |  |  |  |  |  |  | 
3 | CCCCCc1cc(O)c2c(c1)OC(C)(C)C1CCC(CO)=CC21 (centres unmarked) [11-OH-Δ^9-THC, 11-hydroxy-Δ^9-tetrahydrocannabinol] | detected |  |  |  |  |  |  |  |  |  |  | 
4 | CCCCCc1cc(O)c2c(c1)OC(C)(C)[C@@H]1CCC(C(=O)O)=C[C@@H]21 [11-nor-9-carboxy-Δ^9-THC, 11-nor-9-carboxy-Δ^9-tetrahydrocannabinol] | detected |  |  |  |  |  |  |  |  |  |  | 
5 | CCCCCc1cc(O)c2c(c1)OC(C)(CCC=C(C)C)C=C2 (centres unmarked) [CBC, cannabichromene] | detected | 100.6% | 89.1% | 89.9% | 75.6% | (0%) | 0/40 | (0%) | 0/34 | (97.5%) | 39/40 | Analyte Stability (%) at Room Temperature (20-25° C.) [2, 8]: 82.2%; Cannabinoid Half-Lives (min) in breath, back-to-back sampling ([4]; 20 Minutes Post-Smoking): 2.2 min and 2.0 min and 2.7 min and 1.3 min and 11.8 min and 1.0 min; Cannabinoid Half-Lives (min) in breath, back-to-back sampling ([4]; 40 Minutes Post-Smoking): 2.3 min and 3.5 min and 5.2 min; half-life [4, 10]: 3.9 ± 2.5 min; half-life [4, 11]: 3.8 ± 2.3 min; half-life [4, 12]: 3.3 min; half-life [4, 13]: 3.6 min
6 | C=C(C)[C@@H]1CCC(C)=C[C@H]1c1c(O)cc(CCCCC)cc1O [CBD, cannabidiol] | detected |  |  |  |  |  |  |  |  |  |  | 
7 | C=C(C)[C@@H]1CCC(C)=C[C@H]1c1c(O)cc(CCCCC)c(C(=O)O)c1O [CBDA, cannabidiolic acid] | detected |  |  |  |  |  |  |  |  |  |  | 
8 | CCCCCc1cc(O)c(C/C=C(\C)CCC=C(C)C)c(O)c1 [CBG, cannabigerol] | detected | 97.5% | 87.6% | 97.8% | 56.5% | (2.5%) | 1/40 | (5.9%) | 2/34 | (92.5%) | 37/40 | Analyte Stability (%) at Room Temperature (20-25° C.) [2, 8]: 75.0%; Cannabinoid Half-Lives (min) in breath, back-to-back sampling ([4]; 20 Minutes Post-Smoking): 1.6 min and 1.3 min and 2.6 min and 2.1 min and 0.7 min; half-life [4, 10]: 3.6 ± 2.1 min; half-life [4, 11]: 3.7 ± 3.1 min; half-life [4, 12]: 1.7 min
9 | CCCCCc1cc(O)c(C/C=C(\C)CCC=C(C)C)c(O)c1C(=O)O [CBGA, cannabigerolic acid] | detected | 99.4% | 110.9% | 110.4% | 114.3% | (10.0%) | 4/40 | (11.8%) | 4/34 | (45.0%) | 18/40 | 
10 | CCCCCc1cc(O)c2c(c1)OC(C)(C)c1ccc(C)cc1-2 [CBN, cannabinol] | detected | 104.5% | 100.0% | 107.3% | 74.4% | (10.0%) | 4/40 | (2.9%) | 1/34 | (92.5%) | 37/40 | Analyte Stability (%) at Room Temperature (20-25° C.) [2, 8]: 87.9%; Cannabinoid Half-Lives (min) in breath, back-to-back sampling ([4]; 20 Minutes Post-Smoking): 2.0 min and 2.3 min and 1.8 min and 6.4 min and 1.1 min; Cannabinoid Half-Lives (min) in breath, back-to-back sampling ([4]; 40 Minutes Post-Smoking): 2.9 min and 4.8 min and 10.7 min; half-lives observed in exhaled breath ([4]; approximate, summary statement): five; half-life ([4]; 20-60 Minutes Post-Smoking, read-out: Average Half-Life (minutes ± SD) in breath): 35.2 min; half-life [4, 12]: 2.7 min; half-life ([4]; 40-60 Minutes Post-Smoking, read-out: Average Half-Life (minutes ± SD) in breath): 12.8 min; half-life [4, 13]: 6.1 min
11 | CCCCCc1cc2c(c(O)c1C(=O)O)[C@@H]1C=C(C)CC[C@H]1C(C)(C)O2 [Δ^9-THCA, Δ^9-tetrahydrocannabinolic acid A] | detected |  |  |  |  |  |  |  |  |  |  | 

Source: patent US20240027479A1, “A Comprehensive Breath Test that Confirms Recent Use of Inhaled Cannabis within the Impairment Window” (RCU Labs, Inc., priority 2018, published 2024)
